Reference: ChEMBL document CHEMBL5465560, “Selectivity Literature for EUbOPEN Chemogenomic Library” (2024)

Key:
[1] = target: Fibroblast growth factor receptor 1 (Homo sapiens, UniProt P11362); assay: Selectivity interaction (KinomeScan (DiscoverX)) EUB0000607a FGFR1; conditions: at 10 µM
[2] = target: Serine/threonine-protein kinase PLK2 (Homo sapiens, UniProt Q9NYY3); assay: Selectivity interaction (Upstate Kinase Profiler service (Millipore)) EUB0000056c PLK2; conditions: at 1 µM
[3] = target: Tyrosine-protein kinase Fes/Fps (Homo sapiens) (UniProt P07332); assay: Selectivity interaction (Kinase panel (DSF assay)) EUB0001559a FES
Tyrosine-protein kinase Fes/Fps (Homo sapiens), sequence (P07332 whole entry): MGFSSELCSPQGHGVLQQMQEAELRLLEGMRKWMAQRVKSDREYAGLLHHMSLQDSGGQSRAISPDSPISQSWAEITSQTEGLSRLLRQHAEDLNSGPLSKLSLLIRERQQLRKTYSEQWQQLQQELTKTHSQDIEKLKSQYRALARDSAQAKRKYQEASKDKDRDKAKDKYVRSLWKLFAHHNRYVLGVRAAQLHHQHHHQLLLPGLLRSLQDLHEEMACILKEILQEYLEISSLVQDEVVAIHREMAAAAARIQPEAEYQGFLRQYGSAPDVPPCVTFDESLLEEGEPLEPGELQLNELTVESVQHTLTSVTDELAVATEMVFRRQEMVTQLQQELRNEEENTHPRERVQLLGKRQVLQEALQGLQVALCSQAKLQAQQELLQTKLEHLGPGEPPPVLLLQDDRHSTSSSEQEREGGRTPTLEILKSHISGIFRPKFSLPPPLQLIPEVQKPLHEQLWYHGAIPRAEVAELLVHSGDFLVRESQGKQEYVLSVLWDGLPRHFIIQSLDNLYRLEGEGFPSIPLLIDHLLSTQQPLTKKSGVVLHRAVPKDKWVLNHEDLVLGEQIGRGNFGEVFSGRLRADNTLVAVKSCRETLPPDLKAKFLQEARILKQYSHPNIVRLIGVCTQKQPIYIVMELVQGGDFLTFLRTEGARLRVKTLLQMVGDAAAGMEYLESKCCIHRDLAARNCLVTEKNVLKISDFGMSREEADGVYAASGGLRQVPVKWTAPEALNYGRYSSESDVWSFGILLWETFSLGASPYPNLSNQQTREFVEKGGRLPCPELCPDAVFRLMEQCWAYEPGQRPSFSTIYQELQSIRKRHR

[4] = test system: Tyrosine-protein kinase ABL1 (Homo sapiens), P00519 [T315I]; assay: (§1) Selectivity interaction (KinomeScan (DiscoverX)) EUB0000655a ABL1; conditions: at 10 µM
[5] = test system: Tyrosine-protein kinase ABL1 (Homo sapiens), P00519 [F317I]; assay: as §1; conditions: at 10 µM
[6] = test system: Tyrosine-protein kinase ABL1 (Homo sapiens), P00519 [Y253F]; assay: as §1; conditions: at 10 µM
[7] = target: Tyrosine-protein kinase ABL1 (Homo sapiens, UniProt P00519); assay: as §1; conditions: at 10 µM
[8] = test system: Tyrosine-protein kinase ABL1 (Homo sapiens), P00519 [H396P]; assay: as §1; conditions: at 10 µM
[9] = test system: Tyrosine-protein kinase ABL1 (Homo sapiens), P00519 [E255K]; assay: as §1; conditions: at 10 µM
[10] = test system: Tyrosine-protein kinase ABL1 (Homo sapiens), P00519 [M351T]; assay: as §1; conditions: at 10 µM
[11] = test system: Tyrosine-protein kinase ABL1 (Homo sapiens), P00519 [Q252H]; assay: as §1; conditions: at 10 µM
[12] = test system: Tyrosine-protein kinase ABL1 (Homo sapiens), P00519 [F317L]; assay: as §1; conditions: at 10 µM
[13] = target: T1, Phosphatidylinositol 3-kinase C2 domain-containing subunit gamma (Homo sapiens) (UniProt O75747); assay: Selectivity interaction (KinomeScan (DiscoverX)) EUB0000045b PIK3C2G
T1 sequence (whole entry): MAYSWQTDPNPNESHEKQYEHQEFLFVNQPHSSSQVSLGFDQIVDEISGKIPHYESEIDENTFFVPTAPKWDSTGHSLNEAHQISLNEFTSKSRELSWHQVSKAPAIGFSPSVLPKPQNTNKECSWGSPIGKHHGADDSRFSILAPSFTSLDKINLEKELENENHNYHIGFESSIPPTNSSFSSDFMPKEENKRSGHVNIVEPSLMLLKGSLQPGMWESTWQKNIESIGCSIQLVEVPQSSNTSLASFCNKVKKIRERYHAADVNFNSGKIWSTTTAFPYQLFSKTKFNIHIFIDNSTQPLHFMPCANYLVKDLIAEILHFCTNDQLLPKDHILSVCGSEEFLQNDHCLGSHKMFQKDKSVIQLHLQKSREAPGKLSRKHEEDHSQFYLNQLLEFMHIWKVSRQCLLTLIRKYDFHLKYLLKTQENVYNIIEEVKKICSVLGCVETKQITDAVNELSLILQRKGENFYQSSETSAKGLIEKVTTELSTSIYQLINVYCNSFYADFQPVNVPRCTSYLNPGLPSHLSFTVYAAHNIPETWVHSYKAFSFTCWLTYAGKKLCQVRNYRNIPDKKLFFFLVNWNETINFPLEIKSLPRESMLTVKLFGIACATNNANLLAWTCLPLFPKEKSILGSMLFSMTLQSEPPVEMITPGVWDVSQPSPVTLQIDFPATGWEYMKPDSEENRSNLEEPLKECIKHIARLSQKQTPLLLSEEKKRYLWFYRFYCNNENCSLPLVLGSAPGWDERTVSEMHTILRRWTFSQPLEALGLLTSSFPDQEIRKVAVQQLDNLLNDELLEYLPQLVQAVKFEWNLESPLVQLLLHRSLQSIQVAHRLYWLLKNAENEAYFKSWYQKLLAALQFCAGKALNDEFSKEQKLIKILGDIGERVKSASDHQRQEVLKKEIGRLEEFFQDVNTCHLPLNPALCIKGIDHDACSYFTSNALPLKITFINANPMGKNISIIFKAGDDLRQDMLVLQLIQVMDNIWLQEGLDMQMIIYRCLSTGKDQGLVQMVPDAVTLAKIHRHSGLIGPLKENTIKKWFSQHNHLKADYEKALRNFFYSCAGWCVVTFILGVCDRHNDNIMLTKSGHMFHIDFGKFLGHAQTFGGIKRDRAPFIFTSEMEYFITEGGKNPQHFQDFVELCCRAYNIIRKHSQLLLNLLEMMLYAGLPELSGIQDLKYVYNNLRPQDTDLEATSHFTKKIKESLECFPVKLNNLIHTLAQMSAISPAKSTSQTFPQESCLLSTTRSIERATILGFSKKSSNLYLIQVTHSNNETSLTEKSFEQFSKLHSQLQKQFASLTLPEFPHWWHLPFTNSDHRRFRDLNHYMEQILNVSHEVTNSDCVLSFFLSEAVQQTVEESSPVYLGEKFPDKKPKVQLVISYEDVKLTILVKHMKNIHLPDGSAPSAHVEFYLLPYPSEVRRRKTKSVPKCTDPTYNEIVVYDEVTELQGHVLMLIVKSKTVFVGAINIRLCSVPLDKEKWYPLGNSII

[14] = target: T2, Tyrosine-protein kinase TXK (Homo sapiens) (UniProt P42681); conditions: at 10 µM
T2 sequence (whole entry): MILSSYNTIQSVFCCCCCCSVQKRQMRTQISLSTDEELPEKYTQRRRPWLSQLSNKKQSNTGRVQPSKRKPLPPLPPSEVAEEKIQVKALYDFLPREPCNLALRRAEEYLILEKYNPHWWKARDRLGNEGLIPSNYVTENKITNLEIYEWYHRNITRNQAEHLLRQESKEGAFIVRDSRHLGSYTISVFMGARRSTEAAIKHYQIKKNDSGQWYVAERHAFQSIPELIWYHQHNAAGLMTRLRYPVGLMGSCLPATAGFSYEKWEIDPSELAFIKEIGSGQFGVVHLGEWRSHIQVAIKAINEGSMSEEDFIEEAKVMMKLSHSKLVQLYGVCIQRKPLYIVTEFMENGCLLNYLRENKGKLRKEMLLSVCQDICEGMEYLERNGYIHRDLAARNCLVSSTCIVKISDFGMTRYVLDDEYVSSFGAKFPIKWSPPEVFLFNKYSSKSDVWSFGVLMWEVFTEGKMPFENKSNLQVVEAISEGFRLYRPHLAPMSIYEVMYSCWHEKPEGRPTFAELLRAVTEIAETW

Fibroblast growth factor receptor 1, sequence (P11362 22-822 limits assumed): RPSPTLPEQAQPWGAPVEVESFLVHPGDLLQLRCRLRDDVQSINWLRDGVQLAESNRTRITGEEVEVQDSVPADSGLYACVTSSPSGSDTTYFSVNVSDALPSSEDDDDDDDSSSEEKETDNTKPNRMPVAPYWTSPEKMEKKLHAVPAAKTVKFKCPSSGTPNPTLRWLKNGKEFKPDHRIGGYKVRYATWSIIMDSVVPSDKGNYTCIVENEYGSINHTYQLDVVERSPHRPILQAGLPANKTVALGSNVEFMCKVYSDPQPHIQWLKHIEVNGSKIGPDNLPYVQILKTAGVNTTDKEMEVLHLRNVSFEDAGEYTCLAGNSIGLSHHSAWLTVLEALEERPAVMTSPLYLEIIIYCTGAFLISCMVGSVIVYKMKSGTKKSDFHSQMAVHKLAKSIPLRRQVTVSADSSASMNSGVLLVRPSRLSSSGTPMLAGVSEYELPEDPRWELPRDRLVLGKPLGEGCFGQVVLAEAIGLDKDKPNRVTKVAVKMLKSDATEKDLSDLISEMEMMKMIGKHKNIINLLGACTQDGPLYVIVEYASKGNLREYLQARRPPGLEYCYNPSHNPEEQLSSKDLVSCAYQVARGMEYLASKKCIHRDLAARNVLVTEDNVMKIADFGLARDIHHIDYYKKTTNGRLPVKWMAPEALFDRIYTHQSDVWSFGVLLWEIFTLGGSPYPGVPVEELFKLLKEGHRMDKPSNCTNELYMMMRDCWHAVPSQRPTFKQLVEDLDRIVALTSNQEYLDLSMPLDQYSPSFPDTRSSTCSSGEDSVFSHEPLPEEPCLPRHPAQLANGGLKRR
Serine/threonine-protein kinase PLK2, sequence (Q9NYY3 whole entry, looked up): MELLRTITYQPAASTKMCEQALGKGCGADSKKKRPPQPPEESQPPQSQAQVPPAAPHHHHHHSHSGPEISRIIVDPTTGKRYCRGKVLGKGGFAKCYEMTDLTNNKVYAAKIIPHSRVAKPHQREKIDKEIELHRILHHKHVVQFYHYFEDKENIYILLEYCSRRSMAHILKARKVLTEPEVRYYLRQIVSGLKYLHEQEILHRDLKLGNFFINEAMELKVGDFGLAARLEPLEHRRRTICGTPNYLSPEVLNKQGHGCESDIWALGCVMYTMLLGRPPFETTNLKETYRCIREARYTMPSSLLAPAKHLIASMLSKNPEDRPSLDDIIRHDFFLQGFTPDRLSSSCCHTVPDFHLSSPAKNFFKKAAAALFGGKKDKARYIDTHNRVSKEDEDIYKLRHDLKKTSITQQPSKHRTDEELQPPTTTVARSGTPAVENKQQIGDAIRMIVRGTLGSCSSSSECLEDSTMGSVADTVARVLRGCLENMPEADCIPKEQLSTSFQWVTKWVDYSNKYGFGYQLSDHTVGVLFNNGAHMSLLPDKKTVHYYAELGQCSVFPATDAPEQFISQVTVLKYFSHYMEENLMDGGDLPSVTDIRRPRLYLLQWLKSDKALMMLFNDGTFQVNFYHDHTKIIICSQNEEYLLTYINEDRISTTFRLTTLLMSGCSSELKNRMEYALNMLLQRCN

`CNC(=O)Nc1ccc(-c2nc(N3CC4CCC(C3)O4)c3cnn(C4CCC5(CC4)OCCO5)c3n2)cc1` was tested, and the % of control [1] was 100%.
`Cc1ccc(-c2ccc3c(ccc4sc5c(c43)NC[C@@H](C)NC5=O)n2)cn1` was tested, and the % of inhibition [2] was -19%.
`CN(C(=O)c1cnn2cccnc12)c1cc2c(cc1N1CCOCC1)C(=O)N(C[C@@H](F)C(C)(C)O)C2` was tested, and the dTM [3] was -0.6 K.
Compound `CN(C)CCOc1ccc(-c2nc(-c3ccncc3)c(-c3ccc4c(c3)CC/C4=N\O)[nH]2)cc1` has a % of control [4] of 1.6%, a % of control [5] of 72% and a % of control [6] of 9.1%. For the same compound, the % of control [7] was 10%, the % of control [8] was 1.3% and the % of control [9] was 8.6%. The % of control [10] was 11%, the % of control [11] was 3% and the % of control [12] was 37%.
`C=CC(=O)Nc1cc(-n2c(=O)ccc3cnc4ccc(-c5ccc(NS(C)(=O)=O)cc5)cc4c32)ccc1C` showed a % of control ([13]; at 1 µM) of 100% and a % of control ([13]; at 10 µM) of 8.7%.
`Cc1cc([C@@H](C)Nc2ccccc2C(=O)O)c2nc(N3CCOCC3)cc(=O)n2c1` [AZD-6482] gave a % of control [14] of 90%.
